The supplement of paper PMC13386468

Assays:
Assay in all cases: IC50 for competition of protein binding to Kinobeads
Details in all cases: assay detail: Kinobeads competition in P. falciparum blood-stage lysate
UniProt Q8ILP6 = target: UniProt Q8ILP6
UniProt Q8IL57 = target: UniProt Q8IL57
UniProt Q8I3Z1 = target: UniProt Q8I3Z1
UniProt Q8I3W0 = target: UniProt Q8I3W0
UniProt Q8IBZ9 = target: UniProt Q8IBZ9
UniProt Q7K6A5 = target: UniProt Q7K6A5
UniProt Q8I3N3 = target: UniProt Q8I3N3
UniProt Q8II11 = target: UniProt Q8II11
UniProt Q8I5S7 = target: UniProt Q8I5S7
UniProt Q8IIR0 = target: UniProt Q8IIR0
UniProt Q8I1T8 = target: UniProt Q8I1T8
UniProt Q8I1T8, sequence (Q8I1T8 whole entry): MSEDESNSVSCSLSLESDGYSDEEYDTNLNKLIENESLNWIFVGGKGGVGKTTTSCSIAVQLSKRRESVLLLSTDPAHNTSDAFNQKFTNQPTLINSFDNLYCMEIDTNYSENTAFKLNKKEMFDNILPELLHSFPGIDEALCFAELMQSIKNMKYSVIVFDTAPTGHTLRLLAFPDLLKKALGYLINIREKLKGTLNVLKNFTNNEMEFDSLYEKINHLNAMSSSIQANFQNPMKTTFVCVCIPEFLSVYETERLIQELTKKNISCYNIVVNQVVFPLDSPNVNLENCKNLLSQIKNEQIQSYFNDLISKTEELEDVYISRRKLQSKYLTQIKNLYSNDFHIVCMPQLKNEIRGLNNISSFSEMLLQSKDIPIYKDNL

UniProt Q8IJD0 = target: UniProt Q8IJD0
UniProt Q8IKZ6 = target: UniProt Q8IKZ6
UniProt C0H564 = target: UniProt C0H564
UniProt C6KTA4 = target: UniProt C6KTA4
UniProt Q8I2J4 = target: UniProt Q8I2J4
UniProt Q8I2J4, sequence (Q8I2J4 whole entry): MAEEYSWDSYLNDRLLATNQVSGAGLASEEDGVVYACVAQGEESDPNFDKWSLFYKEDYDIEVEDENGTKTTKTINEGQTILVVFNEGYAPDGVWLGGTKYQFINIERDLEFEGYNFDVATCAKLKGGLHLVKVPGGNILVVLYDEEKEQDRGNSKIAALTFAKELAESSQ

UniProt Q8IM15 = target: UniProt Q8IM15
UniProt Q8IM15, sequence (Q8IM15 whole entry): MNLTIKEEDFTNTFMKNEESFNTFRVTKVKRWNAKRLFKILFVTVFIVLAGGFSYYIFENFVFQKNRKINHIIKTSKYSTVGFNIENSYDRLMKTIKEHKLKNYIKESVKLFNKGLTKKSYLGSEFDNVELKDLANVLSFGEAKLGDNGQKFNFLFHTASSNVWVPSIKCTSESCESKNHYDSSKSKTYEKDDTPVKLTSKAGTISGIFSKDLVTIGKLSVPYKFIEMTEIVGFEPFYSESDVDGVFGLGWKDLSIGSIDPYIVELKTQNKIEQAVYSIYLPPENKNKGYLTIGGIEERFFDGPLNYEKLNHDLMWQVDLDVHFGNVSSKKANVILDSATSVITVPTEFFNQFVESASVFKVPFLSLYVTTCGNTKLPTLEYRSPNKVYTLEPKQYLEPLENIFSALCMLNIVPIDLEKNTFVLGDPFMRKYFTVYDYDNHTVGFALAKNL

UniProt Q8I266 = target: UniProt Q8I266
UniProt Q8I266, sequence (Q8I266 whole entry): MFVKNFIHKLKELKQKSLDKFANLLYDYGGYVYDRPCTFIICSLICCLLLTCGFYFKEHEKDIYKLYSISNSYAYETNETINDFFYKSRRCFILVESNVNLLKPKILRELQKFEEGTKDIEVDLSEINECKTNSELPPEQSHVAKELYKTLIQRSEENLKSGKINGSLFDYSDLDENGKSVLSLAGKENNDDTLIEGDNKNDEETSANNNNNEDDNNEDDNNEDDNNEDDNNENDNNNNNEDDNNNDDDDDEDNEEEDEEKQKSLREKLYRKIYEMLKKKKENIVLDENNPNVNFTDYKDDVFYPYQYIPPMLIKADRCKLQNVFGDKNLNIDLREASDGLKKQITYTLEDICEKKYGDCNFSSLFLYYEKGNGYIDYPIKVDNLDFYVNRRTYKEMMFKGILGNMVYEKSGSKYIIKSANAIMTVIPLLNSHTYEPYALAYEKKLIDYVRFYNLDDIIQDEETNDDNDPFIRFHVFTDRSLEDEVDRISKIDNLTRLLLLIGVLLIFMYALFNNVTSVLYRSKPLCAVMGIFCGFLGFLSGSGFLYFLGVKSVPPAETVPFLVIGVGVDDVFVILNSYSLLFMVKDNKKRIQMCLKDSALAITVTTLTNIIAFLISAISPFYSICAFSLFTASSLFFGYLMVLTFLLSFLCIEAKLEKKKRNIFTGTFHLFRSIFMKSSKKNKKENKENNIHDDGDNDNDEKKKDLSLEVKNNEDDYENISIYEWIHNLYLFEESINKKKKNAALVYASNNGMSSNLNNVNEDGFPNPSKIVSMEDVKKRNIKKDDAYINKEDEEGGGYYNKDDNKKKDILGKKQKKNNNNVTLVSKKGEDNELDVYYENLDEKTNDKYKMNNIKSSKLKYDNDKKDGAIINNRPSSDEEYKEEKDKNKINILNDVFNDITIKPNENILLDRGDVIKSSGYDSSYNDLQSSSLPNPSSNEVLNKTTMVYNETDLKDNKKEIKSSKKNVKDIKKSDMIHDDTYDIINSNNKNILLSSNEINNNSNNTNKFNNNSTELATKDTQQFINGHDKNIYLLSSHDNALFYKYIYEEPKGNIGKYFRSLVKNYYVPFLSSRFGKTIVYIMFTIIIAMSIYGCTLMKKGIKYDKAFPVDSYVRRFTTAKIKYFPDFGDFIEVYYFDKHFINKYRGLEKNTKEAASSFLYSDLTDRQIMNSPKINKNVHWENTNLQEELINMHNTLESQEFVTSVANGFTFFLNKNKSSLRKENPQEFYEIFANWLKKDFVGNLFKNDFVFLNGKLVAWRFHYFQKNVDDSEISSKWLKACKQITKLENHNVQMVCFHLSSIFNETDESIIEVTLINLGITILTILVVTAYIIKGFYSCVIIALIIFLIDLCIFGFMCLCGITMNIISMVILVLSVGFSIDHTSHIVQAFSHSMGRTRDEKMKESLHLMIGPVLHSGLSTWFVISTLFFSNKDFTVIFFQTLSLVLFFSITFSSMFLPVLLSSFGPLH

UniProt C6KSV2 = target: UniProt C6KSV2
UniProt Q8I2Q0 = target: UniProt Q8I2Q0
UniProt Q8IEL1 = target: UniProt Q8IEL1
UniProt Q8IM55 = target: UniProt Q8IM55
UniProt Q8IKM5 = target: UniProt Q8IKM5
UniProt Q8IBP8 = target: UniProt Q8IBP8
UniProt Q8II13 = target: UniProt Q8II13
UniProt C0H571 = target: UniProt C0H571
UniProt C0H571, sequence (C0H571 whole entry): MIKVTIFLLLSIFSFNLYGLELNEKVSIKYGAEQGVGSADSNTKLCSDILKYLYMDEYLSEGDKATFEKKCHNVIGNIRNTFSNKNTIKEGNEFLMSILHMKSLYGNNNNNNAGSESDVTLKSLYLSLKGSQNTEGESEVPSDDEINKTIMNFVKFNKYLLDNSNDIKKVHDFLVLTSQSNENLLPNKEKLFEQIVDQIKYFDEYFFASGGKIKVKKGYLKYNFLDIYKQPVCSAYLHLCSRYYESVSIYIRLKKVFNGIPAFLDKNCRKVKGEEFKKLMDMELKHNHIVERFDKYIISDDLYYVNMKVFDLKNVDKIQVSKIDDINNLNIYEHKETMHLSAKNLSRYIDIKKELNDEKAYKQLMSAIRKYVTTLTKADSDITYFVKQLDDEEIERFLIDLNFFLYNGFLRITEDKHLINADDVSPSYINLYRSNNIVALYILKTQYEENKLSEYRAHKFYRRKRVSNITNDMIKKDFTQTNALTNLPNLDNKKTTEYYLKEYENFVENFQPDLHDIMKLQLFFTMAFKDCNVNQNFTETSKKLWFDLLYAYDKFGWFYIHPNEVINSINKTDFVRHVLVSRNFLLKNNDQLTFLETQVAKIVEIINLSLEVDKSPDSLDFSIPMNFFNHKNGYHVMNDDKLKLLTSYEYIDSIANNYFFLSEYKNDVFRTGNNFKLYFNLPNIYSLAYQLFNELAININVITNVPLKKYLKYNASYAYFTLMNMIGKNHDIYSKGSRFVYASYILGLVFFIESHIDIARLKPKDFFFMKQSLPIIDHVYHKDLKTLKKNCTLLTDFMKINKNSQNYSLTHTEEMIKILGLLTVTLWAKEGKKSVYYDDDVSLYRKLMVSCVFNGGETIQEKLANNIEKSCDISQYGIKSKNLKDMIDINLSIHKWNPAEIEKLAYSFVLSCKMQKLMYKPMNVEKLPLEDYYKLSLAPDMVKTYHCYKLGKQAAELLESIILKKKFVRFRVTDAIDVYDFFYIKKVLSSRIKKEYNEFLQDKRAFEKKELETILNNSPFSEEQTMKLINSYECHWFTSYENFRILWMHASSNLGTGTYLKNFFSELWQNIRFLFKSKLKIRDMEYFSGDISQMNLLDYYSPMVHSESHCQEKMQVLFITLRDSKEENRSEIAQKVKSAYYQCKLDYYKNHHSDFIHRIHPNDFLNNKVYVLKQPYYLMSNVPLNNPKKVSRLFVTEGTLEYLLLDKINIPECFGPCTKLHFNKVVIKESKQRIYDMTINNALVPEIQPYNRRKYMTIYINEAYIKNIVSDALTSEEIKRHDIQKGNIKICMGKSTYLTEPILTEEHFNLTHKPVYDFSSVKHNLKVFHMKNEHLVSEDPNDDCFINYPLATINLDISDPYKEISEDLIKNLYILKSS

UniProt Q8IJ99 = target: UniProt Q8IJ99
UniProt Q8I1V2 = target: UniProt Q8I1V2
UniProt Q8I291 = target: UniProt Q8I291
UniProt Q8IJN8 = target: UniProt Q8IJN8
UniProt Q8IDF0 = target: UniProt Q8IDF0
UniProt O96236 = target: UniProt O96236
UniProt Q8I1U8 = target: UniProt Q8I1U8
UniProt Q8IIR7 = target: UniProt Q8IIR7
UniProt Q8IIR7, sequence (Q8IIR7 whole entry): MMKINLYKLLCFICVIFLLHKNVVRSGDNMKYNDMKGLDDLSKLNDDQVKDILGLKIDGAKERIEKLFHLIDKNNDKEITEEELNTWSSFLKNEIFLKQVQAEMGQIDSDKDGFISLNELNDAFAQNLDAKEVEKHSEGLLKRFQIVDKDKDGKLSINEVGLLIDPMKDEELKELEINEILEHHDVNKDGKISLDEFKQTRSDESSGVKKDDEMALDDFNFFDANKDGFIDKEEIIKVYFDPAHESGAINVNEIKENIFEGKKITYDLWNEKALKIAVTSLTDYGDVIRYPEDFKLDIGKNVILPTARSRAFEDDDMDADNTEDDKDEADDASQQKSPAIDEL

UniProt Q8IAX8 = target: UniProt Q8IAX8
UniProt Q8IAX8, sequence (Q8IAX8 whole entry): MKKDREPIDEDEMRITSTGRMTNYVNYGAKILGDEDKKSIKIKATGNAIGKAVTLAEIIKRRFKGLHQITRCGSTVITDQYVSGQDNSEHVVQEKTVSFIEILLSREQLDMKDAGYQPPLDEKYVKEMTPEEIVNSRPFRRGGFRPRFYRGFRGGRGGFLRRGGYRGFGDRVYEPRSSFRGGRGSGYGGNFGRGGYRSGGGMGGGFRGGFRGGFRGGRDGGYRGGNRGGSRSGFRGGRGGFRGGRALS

UniProt Q8IDM3 = target: UniProt Q8IDM3
UniProt O97231 = target: UniProt O97231
UniProt O97231, sequence (O97231 whole entry): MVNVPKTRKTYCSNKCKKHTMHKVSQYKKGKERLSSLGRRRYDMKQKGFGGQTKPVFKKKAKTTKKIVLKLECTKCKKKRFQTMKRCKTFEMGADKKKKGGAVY

UniProt Q8II60 = target: UniProt Q8II60
UniProt Q8IIA4 = target: UniProt Q8IIA4
UniProt Q8IJT9 = target: UniProt Q8IJT9
UniProt Q8IJN9 = target: UniProt Q8IJN9
UniProt Q8IM38 = target: UniProt Q8IM38
UniProt Q8IE50 = target: UniProt Q8IE50
UniProt C0H551 = target: UniProt C0H551
UniProt Q8IJW3 = target: UniProt Q8IJW3
UniProt Q8IIQ6 = target: UniProt Q8IIQ6
UniProt Q76NM8 = target: UniProt Q76NM8
UniProt Q8I1P3 = target: UniProt Q8I1P3
UniProt Q8IJM0 = target: UniProt Q8IJM0
UniProt Q8I562 = target: UniProt Q8I562
UniProt Q8ILA4 = target: UniProt Q8ILA4
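Also: native unpurified kinases from lysate captured on beads bearing immobilized kinase inhibitors, with bead-bound kinases quantified by mass spectrometry across compound doses.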

UniProt Q8IBZ9, sequence (Q8IBZ9 whole entry): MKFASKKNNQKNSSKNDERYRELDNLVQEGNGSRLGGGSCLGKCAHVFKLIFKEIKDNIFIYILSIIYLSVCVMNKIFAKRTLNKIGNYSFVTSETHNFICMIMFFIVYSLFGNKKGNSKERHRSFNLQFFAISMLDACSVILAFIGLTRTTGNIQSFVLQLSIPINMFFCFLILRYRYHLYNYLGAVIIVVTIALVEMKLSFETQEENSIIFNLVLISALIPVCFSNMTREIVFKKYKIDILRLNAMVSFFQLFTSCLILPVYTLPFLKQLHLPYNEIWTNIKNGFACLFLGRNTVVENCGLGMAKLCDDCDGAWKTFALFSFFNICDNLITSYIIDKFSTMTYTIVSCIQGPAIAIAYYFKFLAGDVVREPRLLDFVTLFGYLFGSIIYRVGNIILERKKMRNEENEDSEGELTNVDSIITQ

SMILES: O=c1[nH]c2ccc(Cl)cc2c(NC2CN3CCC2CC3)c1-c1nc2ccccc2[nH]1 (stereo unspecified) [CHIR-124]
- IC50 (UniProt Q8ILP6): > 20 µM
- IC50 (UniProt Q8IL57): > 20 µM
- IC50 (UniProt Q8I3Z1): > 20 µM
- IC50 (UniProt Q8I3W0): > 20 µM
- IC50 (UniProt Q8IBZ9): > 20 µM
- IC50 (UniProt Q7K6A5): > 20 µM
- IC50 (UniProt Q8I3N3): > 20 µM
- IC50 (UniProt Q8II11): < 82.3 nM
- IC50 (UniProt Q8I5S7): > 20 µM
- IC50 (UniProt Q8IIR0): > 20 µM
- IC50 (UniProt Q8I1T8): > 20 µM
- IC50 (UniProt Q8IJD0): > 20 µM
- IC50 (UniProt Q8IKZ6): > 20 µM
- IC50 (UniProt C0H564): > 20 µM
- IC50 (UniProt C6KTA4): > 20 µM
- IC50 (UniProt Q8I2J4): > 20 µM
- IC50 (UniProt Q8IM15): > 20 µM
- IC50 (UniProt Q8I266): > 20 µM
- IC50 (UniProt C6KSV2): > 20 µM
- IC50 (UniProt Q8I2Q0): > 20 µM
- IC50 (UniProt Q8IEL1): 2900 nM
- IC50 (UniProt Q8IM55): > 20 µM
- IC50 (UniProt Q8IKM5): > 20 µM
- IC50 (UniProt Q8IBP8): > 20 µM
- IC50 (UniProt Q8II13): > 20 µM
- IC50 (UniProt C0H571): > 20 µM
- IC50 (UniProt Q8IJ99): > 20 µM
- IC50 (UniProt Q8I1V2): > 20 µM
- IC50 (UniProt Q8I291): > 20 µM
- IC50 (UniProt Q8IJN8): > 20 µM
- IC50 (UniProt Q8IDF0): > 20 µM
- IC50 (UniProt O96236): > 20 µM
- IC50 (UniProt Q8I1U8): > 20 µM
- IC50 (UniProt Q8IIR7): > 20 µM
- IC50 (UniProt Q8IAX8): > 20 µM
- IC50 (UniProt Q8IDM3): > 20 µM
- IC50 (UniProt O97231): > 20 µM
- IC50 (UniProt Q8II60): > 20 µM
- IC50 (UniProt Q8IIA4): > 20 µM
- IC50 (UniProt Q8IJT9): > 20 µM
- IC50 (UniProt Q8IJN9): > 20 µM
- IC50 (UniProt Q8IM38): > 20 µM
- IC50 (UniProt Q8IE50): > 20 µM
- IC50 (UniProt C0H551): > 20 µM
- IC50 (UniProt Q8IJW3): > 20 µM
- IC50 (UniProt Q8IIQ6): > 20 µM
- IC50 (UniProt Q76NM8): > 20 µM
- IC50 (UniProt Q8I1P3): > 20 µM
- IC50 (UniProt Q8IJM0): > 20 µM
- IC50 (UniProt Q8I562): > 20 µM
- IC50 (UniProt Q8ILA4): > 20 µM
